# From patent US8008487B2, “Substituted thieno[2,3-D]pyrimidines as fungicides” (priority 2004, dated 2011)
# Columns and labels:
# Assay type in all cases: in vivo
# [1] = system: Puccinia recondita tritici; experiment: Leaf Rust of Wheat (PUCCRT), whole-plant fungicide test; details: one-day protectant test; for pest or weed control at 100 ppm / pest or weed control at 200 ppm: Puccinia recondita, 24 h, read-out: PUCCRT percent control of disease; for pest or weed control at 100 ppm: 100 ppm (footnote a); for pest or weed control at 200 ppm: foliar; for pest or weed control at 200 ppm / PUCCRT percent control of disease: 200 ppm on foliage
# [2] = system: Leptosphaeria nodorum; experiment: Glume Blotch of Wheat (LEPTNO), whole-plant fungicide test; details: one-day protectant test; for pest or weed control at 100 ppm / pest or weed control at 200 ppm: Parastagonospora nodorum, 24 h, read-out: LEPTNO percent control of disease; for pest or weed control at 100 ppm: 100 ppm (footnote a); for pest or weed control at 200 ppm: foliar; for pest or weed control at 200 ppm / LEPTNO percent control of disease: 200 ppm on foliage
# [3] = system: Magnaporthe grisea; experiment: whole plant or invertebrate; details: for pest or weed control at 200 ppm: Pyricularia oryzae, in Oryza sativa, foliar, 24 h, read-out: PYRIOR percent control of disease, 200 ppm on foliage, rice, one-day protectant test; for PYRIOR percent control of disease: 200 ppm on foliage, rice, one-day protectant test
# [4] = system: Colletotricum lagenarium; experiment: Cucumber Anthracnose (COLLLA), whole-plant fungicide test; details: 200 ppm on foliage, one-day protectant test; for pest or weed control at 200 ppm: Cucumis sativus, foliar, 24 h, read-out: COLLLA percent control of disease
# [5] = system: Phytophthora infestans; experiment: whole plant or invertebrate; details: for pest or weed control at 200 ppm: Phytophthora infestans, in Solanum lycopersicum, foliar, 24 h, read-out: PHYTIN percent control of disease, 200 ppm on foliage, tomato, one-day protectant test; for PHYTIN percent control of disease: 200 ppm on foliage, tomato, one-day protectant test
# [6] = system: Erysiphe cichoracaerum; experiment: Cucumber Powdery Mildew (ERYSCI), whole-plant fungicide test; details: 200 ppm on foliage, one-day protectant test; for pest or weed control at 200 ppm: Erysiphe, foliar, 24 h, read-out: ERYSCI percent control of disease
structure (smiles),measurement,setting,value
CC(Nc1ncnc2scc(Cl)c12)c1ccc2oc(CC(C)(C)C)nc2c1 (stereo not shown) [Compound 1a],pest or weed control at 100 ppm,[1],80 to 100%
same,pest or weed control at 100 ppm,[2],50 to 79%
Clc1csc2ncnc(NCCc3ccc4ccccc4c3)c12 [Compound 2a],pest or weed control at 200 ppm,[3],80 to 100%
same,pest or weed control at 200 ppm,[1],80 to 100%
same,pest or weed control at 200 ppm,[4],0 to 49%
same,pest or weed control at 200 ppm,[2],0 to 49%
same,pest or weed control at 200 ppm,[5],80 to 100%
same,pest or weed control at 200 ppm,[6],80 to 100%
CC(Nc1ncnc2scc(Cl)c12)c1cccc2ccccc12 (stereo not shown) [Compound 3a],pest or weed control at 200 ppm,[3],80 to 100%
same,pest or weed control at 200 ppm,[1],80 to 100%
same,pest or weed control at 200 ppm,[4],0 to 49%
same,pest or weed control at 200 ppm,[2],0 to 49%
same,pest or weed control at 200 ppm,[5],0 to 49%
same,pest or weed control at 200 ppm,[6],80 to 100%
CC(C)(C)OC(=O)c1ccc(CNc2ncnc3scc(Cl)c23)cc1 [Compound 4a],pest or weed control at 200 ppm,[3],50 to 79%
same,pest or weed control at 200 ppm,[1],0 to 49%
same,pest or weed control at 200 ppm,[4],0 to 49%
same,pest or weed control at 200 ppm,[2],0 to 49%
same,pest or weed control at 200 ppm,[5],0 to 49%
same,pest or weed control at 200 ppm,[6],0 to 49%
CC(Nc1ncnc2scc(Cl)c12)c1ccc(N2CCOCC2)cc1 (stereo not shown) [Compound 7a],pest or weed control at 200 ppm,[3],80 to 100%
same,pest or weed control at 200 ppm,[1],80 to 100%
same,pest or weed control at 200 ppm,[4],50 to 79%
same,pest or weed control at 200 ppm,[2],0 to 49%
same,pest or weed control at 200 ppm,[5],80 to 100%
same,pest or weed control at 200 ppm,[6],80 to 100%
Clc1csc2ncnc(NCCc3ccc(N4CCOCC4)cc3)c12 [Compound 8a],pest or weed control at 100 ppm,[1],80 to 100%
same,pest or weed control at 100 ppm,[2],50 to 79%
CC(Nc1ncnc2scc(Cl)c12)c1cnccn1 (stereo not shown) [Compound 23],pest or weed control at 200 ppm,[3],50 to 79%
same,pest or weed control at 200 ppm,[1],80 to 100%
same,pest or weed control at 200 ppm,[4],0 to 49%
same,pest or weed control at 200 ppm,[2],0 to 49%
same,pest or weed control at 200 ppm,[5],0 to 49%
same,pest or weed control at 200 ppm,[6],80 to 100%
CC(C)c1ccc(C(C)Nc2ncnc3scc(Cl)c23)cc1 (stereo not shown) [Compound 24],PYRIOR percent control of disease,[3],** (** is 50-79 percent control of disease)
same,PUCCRT percent control of disease,[1],* (* is 0-49 percent control of disease)
same,pest or weed control at 200 ppm,[4],0 to 49%
same,LEPTNO percent control of disease,[2],* (* is 0-49 percent control of disease)
same,PHYTIN percent control of disease,[5],* (* is 0-49 percent control of disease)
same,ERYSCI percent control of disease,[6],* (* is 0-49 percent control of disease)
CC(C)c1ccc(C(C)Nc2ncnc3scc(Cl)c23)cc1 (stereo not shown) [Compound 25],PYRIOR percent control of disease,[3],*** (*** is 80-100 percent control of disease)
same,PUCCRT percent control of disease,[1],*** (*** is 80-100 percent control of disease)
same,COLLLA percent control of disease,[4],* (* is 0-49 percent control of disease)
same,LEPTNO percent control of disease,[2],*** (*** is 80-100 percent control of disease)
same,PHYTIN percent control of disease,[5],*** (*** is 80-100 percent control of disease)
same,ERYSCI percent control of disease,[6],*** (*** is 80-100 percent control of disease)
CC(Nc1ncnc2scc(Cl)c12)c1ccc(C(F)(F)F)cc1 (stereo not shown) [Compound 26],pest or weed control at 200 ppm,[3],80 to 100%
same,pest or weed control at 200 ppm,[1],80 to 100%
same,pest or weed control at 200 ppm,[4],0 to 49%
same,pest or weed control at 200 ppm,[2],80 to 100%
same,pest or weed control at 200 ppm,[5],0 to 49%
same,pest or weed control at 200 ppm,[6],80 to 100%
COc1ccc(C(C)Nc2ncnc3scc(Cl)c23)cc1 (stereo not shown) [Compound 27],pest or weed control at 200 ppm,[3],80 to 100%
same,pest or weed control at 200 ppm,[1],80 to 100%
same,pest or weed control at 200 ppm,[4],0 to 49%
same,pest or weed control at 200 ppm,[2],50 to 79%
same,pest or weed control at 200 ppm,[5],0 to 49%
same,pest or weed control at 200 ppm,[6],80 to 100%
COc1ccc(OCCNc2ncnc3scc(Cl)c23)cc1 [Compound 64],pest or weed control at 200 ppm,[3],80 to 100%
same,pest or weed control at 200 ppm,[1],80 to 100%
same,pest or weed control at 200 ppm,[4],0 to 49%
same,pest or weed control at 200 ppm,[2],0 to 49%
same,pest or weed control at 200 ppm,[5],0 to 49%
same,pest or weed control at 200 ppm,[6],0 to 49%
CC(Nc1ncnc2scc(Br)c12)c1cnc(OCC(F)(F)F)nc1 (stereo not shown) [Compound 67],pest or weed control at 200 ppm,[3],0 to 49%
same,pest or weed control at 200 ppm,[1],80 to 100%
same,pest or weed control at 200 ppm,[4],0 to 49%
same,pest or weed control at 200 ppm,[2],0 to 49%
same,pest or weed control at 200 ppm,[5],0 to 49%
same,pest or weed control at 200 ppm,[6],0 to 49%
"COc1ccc(C(C)Nc2ncnc3scc(I)c23)cc1 (stereo not shown) [Compound 70, (5-Iodothieno[2,3-d]pyrimidin-4-yl)-[1-(4-methoxyphenyl)ethyl]amine]",pest or weed control at 200 ppm,[3],50 to 79%
same,pest or weed control at 200 ppm,[1],0 to 49%
same,pest or weed control at 200 ppm,[4],0 to 49%
same,pest or weed control at 200 ppm,[2],0 to 49%
same,pest or weed control at 200 ppm,[5],0 to 49%
same,pest or weed control at 200 ppm,[6],0 to 49%
COc1ncc(C(C)Nc2ncnc3scc(Cl)c23)s1 (stereo not shown) [Compound 72],pest or weed control at 200 ppm,[3],80 to 100%
same,pest or weed control at 200 ppm,[1],80 to 100%
same,pest or weed control at 200 ppm,[4],0 to 49%
same,pest or weed control at 200 ppm,[2],0 to 49%
same,pest or weed control at 200 ppm,[5],0 to 49%
same,pest or weed control at 200 ppm,[6],80 to 100%
